Measurements from US20180280370A1, “DOSAGE REGIMEN FOR A PHOSPHATIDYLINOSITOL 3-KINASE INHIBITOR” (Novartis AG, priority 2015, published 2018).
Read-outs that look alike come from different tables or passages of the source.

Experiments:
[1] = tested on: advanced solid malignancies carrying an alteration in the PIK3CA gene; settings: cited from earlier work
[2] = tested on: Rat1-myr-p110α subcutaneous xenografts; test: Antitumor efficacy in Rat1-myr-p110α tumor bearing nude rats; type: in vivo; settings: for body weight changes, 10 A.M. vs 5 p.m. dosing / tumor volume inhibition, 10 A.M. (ALTERNATIVE SCHEDULE 1) vs 5 p.m. dosing: 14 consecutive days
Experimental: Animals and maintenance conditions: Experiments were performed in female nude Rowett rats Hsd: RH-Fox1rnu or female Brown-Norway (BN) rats (Harlan (The Netherlands). Animals were 6-9 weeks of age at time of application of the compound. Animals were housed under Optimized Hygienic Conditions in Makrolon type III cages (max. 2 animals per cage) with free access to food and water. They were allowed to adapt for at least 6 days before the experiment was started. Cell line and cell culture: Rat1-Myr-p110α cells were grown in Dulbecco's Modified Eagle Medium (DMEM) culture medium containing 4.5 g/l glucose supplemented with 10% heat-inactivated fetal calf serum (FCS), 2 mM L-glutamine, 1 mM sodium pyruvate and incubated at 37° C. in a 5% CO2 humidified atmosphere. Cells were harvested with trypsin-EDTA, re-suspended in culture medium (with additives) and counted with a Casy® system. Finally, cells were centrifuged, suspended in ice-cold Hanks' balanced salt solution (HBSS) at a concentration of 3×10^7 cells/ml. Cell culture reagents were purchased from BioConcept (Allschwil, Switzerland). Rat1-myr-p110α cells were generated by the method described in Maira et al., Molecular Cancer Therapeutics, 11:317-328 (2012), which is incorporated herein by reference in its entirety. Briefly, Rat1 cells were transfected to stably express the constitutively active form of the catalytic PI3K class I p110 isoforms a by addition of a myristylation signal to the N-terminus. Rat1-Myr-p110α tumors were established by subcutaneous injection of […] in 100 μL HBSS (Sigma #H8264) into the right flank of nude rats. For the efficacy experiments, treatments were initiated when the mean tumor volumes were approx. 900-1200 mm^3 (21 to 23 days post tumor cells injection). Compound A was prepared for dosing as homogenous suspensions in 1% carboxymethyl cellulose: 0.5% Tween® 80: 98.5% deionized water. Fresh suspensions were prepared once every 7 days and stored at 4° C. Compound A or vehicle was administered orally at a volume of 10 mL/kg. Tumor volumes were measured with calipers and determined according to the formula: length×diameter^2×π/6. In addition to presenting changes of tumor volumes over the course of treatments, antitumor activity is expressed as T/C % (mean change of tumor volume of treated animals/mean change of tumor volume of control animals)×100. Regressions (%) were calculated according to the formula ((mean tumor volume at end of treatment−mean tumor volume at start of treatment)/mean tumor volume at start of treatment)×100. Body weights and tumor volumes were recorded two to three times a week. Absolute values for primary tumor growth and body weight were used to make the statistical comparisons between groups (one way ANOVA followed by Dunnett's test for normally distributed data; ANOVA on Ranks for not normally distributed data followed by Dunnett's test for equal group size or Dunn's for unequal group size). Absolute values for blood glucose (calculated mean over 6 hours' time periods) and PK data were used to make the statistical comparisons between groups (two-tailed Student's t-tests). The significant level was set at p<0.05. All statistical calculations were carried out using SigmaStat.

[3] = Plasma PK after oral administration in freely moving catheterized rats with automated blood sampling; type: in vivo, Brown Norway rats; settings: day 1 or 4 (steady state), 50 mg/kg p.o. qd; 2, 4, 6, 8, 10, 12, 18 and 24h post treatment
Source text: Determination of Pharmacokinetic (PK) Parameters after Oral Administration of Compound A in Freely Moving Catheterized Rats Using Automated Blood Sampling (ABS) Technology:
The highly automated ABS system (Instech ABS2™) allows for unattended blood sample collection via an in-dwelling venous catheter placed in the jugular or femoral vein. For all animals, cannulas were filled with 1:1 heparin glycerol solution when not on study. The ABS freely-moving system is a well-recognized method to reduce stress during blood sampling and it only marginally impedes the animal in its freedom to move, drink, eat and sleep. Furthermore, this method allows obtaining pharmacokinetic parameters at night time (active phase of the animal).
(§1) Absolute values for primary tumor growth and body weight were used to make the statistical comparisons between groups (one way ANOVA followed by Dunnett's test for normally distributed data; ANOVA on Ranks for not normally distributed data followed by Dunnett's test for equal group size or Dunn's for unequal group size). Absolute values for blood glucose (calculated mean over 6 hours' time periods) and PK data were used to make the statistical comparisons between groups (two-tailed Student's t-tests). The significant level was set at p<0.05. All statistical calculations were carried out using SigmaStat.

[4] = Continuous blood glucose measurement via radio-telemetry in conscious freely moving rats; type: in vivo, Brown Norway rats; settings: for normalization of blood glucose in between 2 doses: steady state
Experimental: Animals and maintenance conditions: Experiments were performed in female nude Rowett rats Hsd: RH-Fox1rnu or female Brown-Norway (BN) rats (Harlan (The Netherlands). Animals were 6-9 weeks of age at time of application of the compound. Animals were housed under Optimized Hygienic Conditions in Makrolon type III cages (max. 2 animals per cage) with free access to food and water. They were allowed to adapt for at least 6 days before the experiment was started.
Compound A was prepared for dosing as homogenous suspensions in 1% carboxymethyl cellulose: 0.5% Tween® 80: 98.5% deionized water. Fresh suspensions were prepared once every 7 days and stored at 4° C. Compound A or vehicle was administered orally at a volume of 10 mL/kg.
Blood Glucose Measurements Via Radio-Telemetry Technology (HD-XG Radio Telemetry Transmitter; Data Sciences International):
Blood glucose levels were measured continuously in conscious non-restrained freely moving rats by the method described in Brockway et al., Journal of Diabetes Science and Technology., 9(4):771-81 (2015), which is incorporated herein by reference in its entirety. Briefly, the 1.4 cc telemetry device provides direct continuous blood glucose readings along with temperature and activity for 4 weeks or longer. The device was used in non-tumor bearing Brown Norway (BN) rats. Each animal was surgically instrumented with glucose sensors in the abdominal aorta and the device placed in the intraperitoneal cavity. Continuous glucose readings were recorded with the Dataquest A.R.T. data acquisition system. Reference glucose values were measured from tail vein blood samples using the Nova StatStrip glucometer twice per week. Each animal was measured in cyclic runs of 1 minute for 10 seconds with a sampling rate of 1 Hz. Mean values for blood glucose levels, body temperature and motor activity were then computed and stored. Fifteen minutes or hourly averages were determined using the interval averaging routine on the Dataquest Analysis Software (Dataquest A.R.T, version 4.36; Data Sciences). Blood glucose values are expressed in mmol/L, body temperature in degree Celsius (° C.) and motor activity in number of movements (units) per minute.
as §1

[5] = tested on: advanced solid tumors; settings: cited from earlier work
[6] = daily administration, human patients

Cc1nc(NC(=O)N2CCC[C@H]2C(N)=O)sc1-c1ccnc(C(C)(C)C(F)(F)F)c1 [Compound A, (S)-Pyrrolidine-1,2-dicarboxylic acid 2-amide 1-({4-methyl-5-[2-(2,2,2-trifluoro-1,1-dimethyl-ethyl)-pyridin-4-yl]-thiazol-2-yl}-amide)]
Disease control rate (complete response, partial response or stable disease) ([1]; 150 mg/BID, 95% CI: 38.4-88.2): 66.7%
confirmed partial responses ([1]; 150 mg/BID): 2 patients
confirmed partial responses ([1]; 270 mg/QD): 2 patients
confirmed partial responses ([1]; 350 mg/QD): 1 patients
Disease control rate (complete response, partial response or stable disease) ([1]; 400 mg/QD, 95% CI: 40.1-66.0): 53.2%
confirmed partial responses ([1]; 400 mg/QD): 2 patients
MTD ([1]; QD, in patients): 400 mg
confirmed partial responses ([1]; all doses, of 132 evaluable patients): 7 patients
patients with induced hyperglycemia [1, 6]: 49%
partial responses to treatment ([1]; of 132 evaluable patients, as of Mar. 10, 2014, oral 30-450 mg q.d. or 120-200 mg b.i.d.): 15 patients
anti-tumor efficacy ([2]; 14 mg/kg p.o. qd, 2 weeks of treatment): stasis
body weight changes, 10 A.M. vs 5 p.m. dosing ([2]; 14 mg/kg p.o. qd): very similar pattern
tumor volume inhibition, 10 A.M. (ALTERNATIVE SCHEDULE 1) vs 5 p.m. dosing ([2]; 14 mg/kg p.o. qd): No significant differences
tumor regression ([2]; 25 mg/kg p.o. qd, 2 weeks of treatment): 50%
body weight changes, 10 A.M. vs 5 p.m. dosing ([2]; 25 mg/kg p.o. qd): very similar pattern
tumor volume inhibition, 10 A.M. (ALTERNATIVE SCHEDULE 1) vs 5 p.m. dosing ([2]; 25 mg/kg p.o. qd): No significant differences
plasma PK profile, 10 AM vs 5 PM dosing [3]: did not revealed any significant differences
normalization of blood glucose in between 2 doses ([4]; 50 mg/kg p.o. qd, dosing before the active phase (5 p.m.)): could not be achieved
normalization of blood glucose in between 2 doses ([4]; 50 mg/kg p.o. qd, dosing before the inactive phase (10 a.m.)): allowed blood glucose to normalize in between 2 doses
change in glucose level ([4]; 50 mg/kg p.o. qd, steady state (Day 4), n=6): transient glucose level increase
effect on blood glucose levels ([4]; day 1 of treatment, 50 mg/kg p.o. qd dosed at 5 PM (active phase)): slight hyperglycemia
effect on blood glucose levels ([4]; day 1 of treatment, 50 mg/kg p.o. qd dosed at 10 AM (inactive phase)): slight hyperglycemia
period of remaining transient hyperglycemia after treatment discontinuation ([4]; recovery day 1, group dosed before the active phase (5 p.m.), 50 mg/kg p.o. qd): up to 12 h
blood glucose after treatment discontinuation ([4]; start of recovery day 1, group dosed before the inactive phase (10 a.m.), 50 mg/kg p.o. qd): already normalized to baseline levels
effect on blood glucose levels ([4]; steady state (Day 4-5 of daily treatment), 50 mg/kg p.o. qd): transient hyperglycemia profile

Nc1cc(C(F)(F)F)c(-c2cc(N3CCOCC3)nc(N3CCOCC3)n2)cn1 [Compound B, 4-(trifluoromethyl)-5-(2,6-dimorpholinopyrimidin-4-yl)pyridin-2-amine]
patients with induced hyperglycemia [5, 6]: 31%
unconfirmed partial responses ([5]; parotid gland carcinoma, epithelioid hemangiothelioma, ER+ breast cancer): three
confirmed partial response ([5]; triple-negative breast cancer, 83 patients enrolled): One
